Assay [1] relates to NCI-H322 cells, a human lung cancer cell line. As to the kind of experiment: Cell growth inhibitory effect, cell counting kit 8, 6 days. The class given is cell-based. The following applies: 144 h, 6 days incubation. An excerpt: (§1) Cell growth inhibitory effect on human mesothelioma, human liver cancer, human ovarian cancer, and […]
(§2) NCI-H226 cells, a human mesothelioma cell line (ATCC, CRL-5826), NCI-H322 cells, a human lung cancer cell line (the European Collection of Authenticated Cell Cultures, 95111734), OVTOKO cells, a human ovarian cancer cell line (JCRB cell bank, JCRB1048) and HuH28, a human liver cancer cell line (JCRB cell bank, JCRB0426) were each subcultured by keeping the cell density under 80% in a RPMI1640 culture medium with 10% fetal bovine serum (FBS). NCI-H226 cells, NCI-H322 cells and SSP-25 cells were each suspended in the RPM11640 culture medium mentioned above, and plated to a 96-well flat-bottom plate at 500 cells/well in each well, and incubated at 37° C. in an incubator with 5% CO2 for one day. After the incubation, the evaluation of cell growth inhibitory activity was started. OVTOKO cells were suspended in the RPMI1640 culture medium mentioned above, and plated to a 96-well flat-bottom plate at 250 cells/well in each well, and incubated it at 37° C. in an incubator with 5% CO2 for one day. After the incubation, the evaluation of the cell growth inhibitory activity was started. The next day, a test compound was serially diluted to 5 times of its final concentration in the RPM11640 culture medium mentioned above, and the diluted solution was added to each well. In this case, the final concentration of DMSO in each well was adjusted to 0.1%. After the test compound was added, cells were incubated at 37° C. in an incubator with 5% CO2 for 6 days. At the addition of the test compound and 6 days after the addition, the cell counting measurement was performed using a cell counting kit 8 (made by DOJINDO) according to a protocol equivalent to DOJINDO's recommendation. A reagent contained in the kit was added to each plate and color reaction was performed for 2 or 3 hours at 37° C. in an incubator with 5% CO2. After the reaction, an absorbance at wavelength of 450 nm was measured using a microplate reader. A growth inhibition rate was calculated according to the following formula, from which the concentration of a test compound at which cell growth was inhibited by 50% (GI50 value) was determined.

The test system of assay [2] is NCI-H226 cells, a human mesothelioma cell line. Described as above. The class given is cell-based. The following applies: 144 h, 6 days incubation.
Description: as §1, §2

[3] abbreviates: group 100 nmol/L to 1 μmol/L (upper bound given in μmol/L).

A value given as a limit tells only on which side of the number the result lay.

For `C=CC(=O)NC1COc2c(cccc2Oc2ccc(C(F)(F)F)nc2)C1` (racemic) [Compound 51, N-(8-[{6-(Trifluoromethyl)pyridin-3-yl}oxy]chroman-3-yl)acrylamide], the 50% growth inhibitory concentration (GI50) in assay [1] was under 1000 nM; in assay [2] (group less than 100 nmol/L) it was under 100 nM.

With `C=CC(=O)N[C@@H]1c2ccc(Oc3ccc(C(F)(F)F)cc3)cc2OC[C@@H]1F` (relative stereo) [Compound 21, cis-N-[3-Fluoro-7-{4-(trifluoromethyl)phenoxy}chroman-4-yl]acrylamide], the values for the 50% growth inhibitory concentration (GI50) in assay [1] and in assay [2] (group less than 100 nmol/L) were under 1000 nM and under 100 nM, respectively.

As to `C=CC(=O)N[C@H]1CC[C@@H](Oc2ccc(Cl)cc2)c2nc(Cl)ccc21` (relative stereo) [Compound 70, cis-N-{2-Chloro-8-(4-chlorophenoxy)-5,6,7,8-tetrahydroquinolin-5-yl}acrylamide], the GI50 is under 1000 nM in assay [1] and under 100 nM in assay [2] (group less than 100 nmol/L).

`C=CC(=O)N[C@H]1CC[C@@H](Oc2ccc(Cl)cc2)c2nc(OC)ccc21` (relative stereo) [Compound 71, cis-N-{8-(4-Chlorophenoxy)-2-methoxy-5,6,7,8-tetrahydroquinolin-5-yl}acrylamide]: the GI50 in assay [1] is under 1000 nM; in assay [2] (group less than 100 nmol/L) it was under 100 nM.

For `C=CC(=O)N[C@H]1CC[C@@H](Oc2ccc(C(F)(F)F)cc2)c2nc(Cl)ccc21` (relative stereo) [Compound 76, cis-N-[2-Chloro-8-{4-(trifluoromethyl)phenoxy}-5,6,7,8-tetrahydroquinolin-5-yl]acrylamide], the 50% growth inhibitory concentration (GI50) in assay [1] is under 1000 nM; in assay [2] (group less than 100 nmol/L) it was under 100 nM.

For `C=CC(=O)N[C@H]1CC[C@H](Oc2ccc(C(F)(F)F)cc2)c2nc(Cl)ccc21` (relative stereo) [Compound 82, trans-N-[2-Chloro-8-{4-(trifluoromethyl)phenoxy}-5,6,7,8-tetrahydroquinolin-5-yl]acrylamide], the GI50 in assay [1] is under 1000 nM; in assay [2] (group less than 100 nmol/L) it was under 100 nM.

Regarding `C=CC(=O)N[C@H]1CC[C@@H](Oc2ccc(C(F)(F)F)cc2)c2nc(C)ccc21` (relative stereo) [Compound 184, cis-N-[2-Methyl-8-{4-(trifluoromethyl)phenoxy}-5,6,7,8-tetrahydroquinolin-5-yl]acrylamide], the GI50 was under 1000 nM in assay [1] and under 100 nM in assay [2] (group less than 100 nmol/L).

For `C=CC(=O)NC1CCOc2c1ccc(Oc1ccc(Cl)cc1)c2C` (stereo not shown) [Compound 27, N-{7-(4-Chlorophenoxy)-8-methylchroman-4-yl}acrylamide], the concentration for 50% growth inhibition (GI50) is under 1000 nM in assay [1] and under 100 nM in assay [2] (group less than 100 nmol/L).

Take `C=CC(=O)NC1CCOc2c1ccc(Oc1ccc(Cl)cc1)c2OC` (stereo not shown) [Compound 32, N-{7-(4-Chlorophenoxy)-8-methoxychroman-4-yl}acrylamide]: the 50% growth inhibitory concentration (GI50) in assay [1] is under 1000 nM; in assay [2] (group less than 100 nmol/L), under 100 nM.

Regarding `C=CC(=O)NC1COc2cccc(Oc3ccc(C(F)(F)F)cc3)c2C1` (stereo not shown) [Compound 35, N-[5-{4-(Trifluoromethyl)phenoxy}chroman-3-yl]acrylamide], the GI50 was under 1000 nM in assay [1] and under 100 nM in assay [2] (group less than 100 nmol/L).

In assay [1], `C=CC(=O)NC1COc2cc(Oc3ccc(Cl)cc3)ccc2C1` (stereo not shown) [Compound 37, N-{7-(4-Chlorophenoxy)chroman-3-yl}acrylamide] yielded a GI50 of under 1000 nM.

Regarding `C=CC(=O)NC1COc2c(Oc3ccc(Cl)cc3)ccc(C)c2C1` (stereo not shown) [Compound 41, N-{8-(4-Chlorophenoxy)-5-methylchroman-3-yl}acrylamide], the results for the 50% growth inhibitory concentration (GI50) in assay [1] and in assay [2] (group less than 100 nmol/L) were under 1000 nM and under 100 nM, respectively.

Take `C=CC(=O)NC1COc2c(cccc2Oc2ccc(Cl)cc2)C1` (stereo not shown) [Compound 59, N-{8-(4-chlorophenoxy)chroman-3-yl}acrylamide]: the GI50 in assay [1] is under 1000 nM; in assay [2] (group less than 100 nmol/L) it was under 100 nM.

As to `C=CC(=O)NC1COc2c(cccc2Oc2ccc(C(F)(F)F)cc2)C1` (stereo not shown) [Compound 61, N-[8-{4-(Trifluoromethyl)phenoxy}chroman-3-yl]acrylamide], the GI50 in assay [1] was under 1000 nM.

Regarding `C=CC(=O)NC1COc2c(cccc2Oc2ccc(C(F)(F)F)cn2)C1` (stereo not shown) [Compound 64, N-(8-[{5-(Trifluoromethyl)pyridin-2-yl}oxy]chroman-3-yl)acrylamide], the GI50 in assay [1] was under 1000 nM.

`C=CC(=O)Nc1cncc(Oc2ccc(C(F)(F)F)c(F)c2)c1` [Compound 106, N-[5-{3-Fluoro-4-(trifluoromethyl)phenoxy}pyridin-3-yl]acrylamide]: the GI50 is under 1000 nM in assay [1] and 100 to 1000 nM in assay [2] (setting [3]).

For the molecule `C=CC(=O)Nc1cncc(Oc2ccc(C(F)(F)F)cn2)c1` [Compound 109, N-(5-[{5-(Trifluoromethyl)pyridin-2-yl}oxy]pyridin-3-yl)acrylamide], the results for the GI50 in assay [1] and in assay [2] (group less than 100 nmol/L) were under 1000 nM and under 100 nM, respectively.

Take `C=CC(=O)Nc1ccc(OCc2ccccc2)c2ncccc12` [Compound 123, N-{8-(Benzyloxy)quinolin-5-yl}acrylamide]: the GI50 in assay [2] (setting [3]) was in the range of 100 to 1000 nM.

Turning to `C=CC(=O)NCc1ccc(Oc2cccc(Cl)c2)c2ncccc12` [Compound 133, N-[{8-(3-chlorophenoxy)quinolin-5-yl}methyl]acrylamide], in assay [2] (group less than 100 nmol/L), the GI50 is under 100 nM.

The molecule `C=CC(=O)NCc1ccc(Oc2ccc(C3CC3)cc2)c2ncccc12` [Compound 136, N-[{8-(4-Cyclopropylphenoxy)quinolin-5-yl}methyl]acrylamide] gave a GI50 in assay [2] (setting [3]) of 100 to 1000 nM.

For `C=CC(=O)NCc1ccc(Oc2ccc(Cl)nc2)c2ncccc12` [Compound 142, N-([8-{(6-Chloropyridin-3-yl)oxy}quinolin-5-yl]methyl)acrylamide], the GI50 in assay [2] (setting [3]) lay in the range of 100 to 1000 nM.

In the case of `C=CC(=O)NCc1cc(Oc2ccc(Cl)cc2)nc2ccccc12` [Compound 144, N-[{2-(4-Chlorophenoxy)quinolin-4-yl}methyl]acrylamide], the concentration for 50% growth inhibition (GI50) in assay [2] (setting [3]) lay within 100 to 1000 nM.

With `C=CC(=O)NCc1cc(Oc2ccc(C(F)(F)F)cc2)nc2ccccc12` [Compound 146, N-([2-{4-(Trifluoromethyl)phenoxy}quinolin-4-yl]methyl)acrylamide], the concentration for 50% growth inhibition (GI50) in assay [2] (setting [3]) lay in the range of 100 to 1000 nM.

In the case of `O=C(/C=C/C(F)(F)F)NCc1cc(Oc2ccc(C(F)(F)F)cc2)nc2ccccc12` [Compound 147, (E)-4,4,4-Trifluoro-N-([2-{4-(trifluoromethyl)phenoxy}quinolin-4-yl]methyl)-2-butenamide], the concentration for 50% growth inhibition (GI50) in assay [2] (setting [3]) lay within 100 to 1000 nM.

In assay [2] (setting [3]), `C=CC(=O)NC1COc2c(cccc2Oc2ccc(C(F)(F)F)nn2)C1` (stereo not shown) [Compound 156, N-(8-[{6-(trifluoromethyl)pyridazin-3-yl}oxy]chroman-3-yl)acrylamide] yielded a GI50 of 100 to 1000 nM.

In the case of `C=CC(=O)NC1COc2c(cccc2Oc2cnc(C(F)(F)F)cn2)C1` (stereo not shown) [Compound 157, N-(8-[{5-(Trifluoromethyl)pyrazin-2-yl}oxy]chroman-3-yl)acrylamide], the results for the 50% growth inhibitory concentration (GI50) in assay [1] and in assay [2] (group less than 100 nmol/L) were under 1000 nM and under 100 nM, respectively.

For the molecule `C=CC(=O)NC1CCOc2c1ccc(OCc1ccccc1)c2F` (stereo not shown) [Compound 166, N-{7-(Benzyloxy)-8-fluorochroman-4-yl}acrylamide], the concentration for 50% growth inhibition (GI50) in assay [2] (setting [3]) was 100 to 1000 nM.

`C=CC(=O)NC1CCOc2c1ccc(Oc1ccc(F)cc1)c2F` (stereo not shown) [Compound 167, N-{8-Fluoro-7-(4-fluorophenoxy)chroman-4-yl}acrylamide] displayed a GI50 in assay [2] (group less than 100 nmol/L) of under 100 nM.

Molecule `C=CC(=O)NC1CCOc2c1ccc(Oc1ccc(C(F)(F)F)nc1)c2OCC` (stereo not shown) [Compound 172, N-(8-Ethoxy-7-[{6-(trifluoromethyl)pyridin-3-yl}oxy]chroman-4-yl)acrylamide] had a GI50 in assay [2] (setting [3]) of 100 to 1000 nM.

In turn, `C=CC(=O)NCc1cc(Oc2ccc(C(F)(F)F)cc2)cc2cccnc12` [Compound 221, N-([6-{4-(Trifluoromethyl)phenoxy}quinolin-8-yl]methyl)acrylamide] displayed a concentration for 50% growth inhibition (GI50) in assay [2] (setting [3]) of 100 to 1000 nM.

In turn, `C=CC(=O)NC1CCC(Oc2ccc(C(F)(F)F)cc2)c2cnccc21` (stereo not shown) [Compound 228, N-[8-{4-(Trifluoromethyl)phenoxy}-5,6,7,8-tetrahydroisoquinolin-5-yl]acrylamide] displayed a GI50 in assay [1] of under 1000 nM.

In assay [2] (group less than 100 nmol/L), `C=CC(=O)NC1COc2c(cc(Br)cc2Oc2ccc(C(F)(F)F)nc2)C1` (stereo not shown) [Compound 231, N-(6-Bromo-8-[{6-(trifluoromethyl)pyridin-3-yl}oxy]chroman-3-yl)acrylamide] yielded a GI50 of under 100 nM.

On to `C=CC(=O)NC1CCOc2c1ccc(Oc1ccc(C(F)(F)F)cc1)c2OC` (stereo not shown) [Compound 237, N-[8-Methoxy-7-{4-(trifluoromethyl)phenoxy}chroman-4-yl]acrylamide], for which the GI50 in assay [2] (group less than 100 nmol/L) is under 100 nM.

For the molecule `C=CC(=O)NC1CCOc2c1ccc(Oc1ccc(C(F)(F)F)cc1)c2F` (stereo not shown) [Compound 239, N-[8-Fluoro-7-{4-(trifluoromethyl)phenoxy}chroman-4-yl]acrylamide], the GI50 in assay [2] (group less than 100 nmol/L) was under 100 nM.

The record behind these values is patent publication US11332455B2, “α,β-unsaturated amide compound” (KYOWA KIRIN CO., LTD., priority 2015, dated 2022).
